In patent US20240327406A1, “POTASSIUM CHANNEL MODULATORS” (Autifony Therapeutics Limited, priority 2021, published 2024):
Several values for one entry are separate records, joined by “and”; a condition that tells them apart may be missing. Equal entries are not always repeated. Where two headings read alike, the source gives them in different places.

Target: T1, human Kv3.1 channels (hKv3.1) (Homo sapiens, UniProt P48547)
T1 sequence (P48547 1-501 limits assumed): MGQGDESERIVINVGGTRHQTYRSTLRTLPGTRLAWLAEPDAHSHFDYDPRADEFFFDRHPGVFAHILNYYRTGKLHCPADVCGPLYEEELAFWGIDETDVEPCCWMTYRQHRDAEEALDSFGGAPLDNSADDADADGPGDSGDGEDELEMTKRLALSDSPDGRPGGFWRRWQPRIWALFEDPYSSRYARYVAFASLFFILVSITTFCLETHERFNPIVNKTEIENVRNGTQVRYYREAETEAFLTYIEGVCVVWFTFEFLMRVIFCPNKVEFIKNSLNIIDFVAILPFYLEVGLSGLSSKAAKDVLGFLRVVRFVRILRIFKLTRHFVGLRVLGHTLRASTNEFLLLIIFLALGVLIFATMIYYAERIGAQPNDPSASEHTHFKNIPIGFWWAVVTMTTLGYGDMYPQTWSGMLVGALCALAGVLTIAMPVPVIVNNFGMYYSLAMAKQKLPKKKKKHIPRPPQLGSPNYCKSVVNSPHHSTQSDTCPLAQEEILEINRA
Assay: Measurement of Kv3 channel modulation: Kv3.1 assay (IonWorks Quattro whole-cell electrophysiology)
Format: cell-based
Settings: for Kv3.1 max R %: normalised to maximum effect of reference compound (50 microM)
Description: The ability of the compounds of the invention to modulate the voltage-gated potassium channel subtypes Kv3.4/Kv3.3/Kv3.2/Kv3.1 may be determined using the following assay. Analogous methods may be used to investigate the ability of the compounds of the invention to modulate other channel subtypes.
Human embryonic kidney (HEK)-hKv3.1 cell line is generated by transfecting HEK-293 cells with an expression vector with human Kv3.1 (NM_004976.4). Cells are cultured with MEM supplemented with 10% Heat-Inactivated FBS, 2 mM L-glutamine, 1% Penicillin-Streptomycin, and 0.6 mg/ml of Geneticin (G418). HEK-hKv3.1b cells were amplified in T175 cm2 flask at 37° C. with 5% CO2, using MEM amplification medium, containing the G418 selection antibiotic (0.6 mg/ml). Cells were detached every 3-4 days, using DPBS to wash twice the flask, then TrypLE to dislodge the cells, and re-plated at a density of 2-4×10^6 cells/flask.
The day of the experiment, cells are removed from the incubator and the culture medium removed. Cells are washed with 5 ml of Dulbecco's PBS (DPBS) calcium and magnesium free and detached by the addition of 3 ml Versene (Invitrogen, Italy) followed by a brief incubation at 37° C. for 5 minutes. The flask is tapped to dislodge cells and 10 ml of DPBS containing calcium and magnesium is added to prepare a cell suspension. The cell suspension is then placed into a 15 ml centrifuge tube and centrifuged for 2 min at 1200 rpm. After centrifugation, the supernatant is removed and the cell pellet re-suspended in 4 ml of DPBS containing calcium and magnesium using a 5 ml pipette to break up the pellet. Cell suspension volume is then corrected to give a cell concentration for the assay of approximately 3 million cells per ml.
Experiments are conducted at r.t. using IonWorks Quattro™ planar array electrophysiology technology (Molecular Devices Corp.) with PatchPlate™ PPC. Stimulation protocols and data acquisition are carried out using a microcomputer (Dell Pentium 4). Planar electrode hole resistances (Rp) are determined by applying a 10 mV voltage step across each well. These measurements are performed before cell addition. After cell addition and seal formation, a seal test is performed by applying a voltage step from −80 mV to −70 mV for 160 ms. Following this, amphotericin-B solution is added to the intracellular face of the electrode to achieve intracellular access. Cells are held at −70 mV. Leak subtraction is conducted in all experiments by applying 50 ms hyperpolarizing (10 mV) prepulses to evoke leak currents followed by a 20 ms period at the holding potential before test pulses.
For hKv3.2 and hKv3.1, assays from the holding potential of −70 mV, a first test pulse at −15 mV was applied for 100 ms and after 100 ms at −70 mV a second pulse at +40 mV was applied for 50 ms. Cells were then maintained for 100 ms at −100 mV and another pulse from […] to +40 mV (duration 50 ms) was applied to clamp later the voltage at −40 mV during 200 ms
The intracellular solution contains the following (in mM): K-gluconate 100, KCl 54, MgCl2 3.2, HEPES 5, adjusted to pH 7.3 with KOH. Amphotericin-B solution is prepared as 50 mg/ml stock solution in DMSO and diluted to a final working concentration of 0.1 mg/ml in intracellular solution.
Compounds of use in the invention (or reference compounds such as N-cyclohexyl-N-[(7,8-dimethyl-2-oxo-1,2-dihydro-3-quinolinyl)methyl]-N′-phenylurea) are dissolved in dimethylsulfoxide (DMSO) at a stock concentration of 10 mM. […] Each dilution (1 μL) is transferred to another compound plate and external solution containing 0.05% pluronic acid (66 μL) is added. 3.5 μL from each plate containing a compound of the invention is added and incubated with the cells during the IonWorks Quattro™ experiment. The final assay dilution is 200 and the final compound concentrations are in the range 50 μM to 50 nM.

[1] = Table 2, Example compounds, rounded to one decimal place, some compounds with two data sets (n given in cell), read-out: Kv3.1 pEC50 (converted)
[2] = Table 3, Reference Examples and corresponding Examples, rounded to one decimal place, read-out: Kv3.1 pEC50 (converted)
[3] = Table 1, Reference Examples, current at -15 mV step, normalised to 50 microM reference compound, read-out: Kv3.1 pEC50 (converted)

SMILES	Kv3.1 max R % (Table 2, Example compounds)	EC50 [1]	other results
O=c1[nH]c2cccnc2n1-c1ccc(Oc2cccc(OC(F)(F)F)c2)nc1 [Example 7, 3-[6-[3-(trifluoromethoxy)phenoxy]-3-pyridyl]-1H-imidazo[4,5-b]pyridin-2-one]	89% and 96%	501 nM and 398 nM	EC50 [2]: 398 nM; EC50 (Table 5, Example compounds, read-out: Kv3.1 pEC50 (converted)): 398 nM
CC1(C)COc2cccc(Oc3ncc(-n4c(=O)[nH]c5cnccc54)cn3)c21 [RE9, reference compound]			EC50 [2]: > 50100 nM
Cn1cc2[nH]c(=O)n(-c3ccc(Oc4cccc5c4C(C)(C)CO5)nc3)c2n1 [Example 20, 6-[6-[(3,3-dimethyl-2H-benzofuran-4-yl)oxy]-3-pyridyl]-2-methyl-4H-imidazo[4,5-c]pyrazol-5-one]	145% and 155%	794 nM and 631 nM	
Cc1cnc2c(c1)[nH]c(=O)n2-c1cnc(Oc2cccc3c2C2(CC2)CO3)cn1 [Example 38, 6-methyl-3-(5-spiro[2H-benzofuran-3,1′-cyclopropane]-4-yloxypyrazin-2-yl)-1H-imidazo[4,5-b]pyridin-2-one]	122%	200 nM	
Cn1cc2[nH]c(=O)n(-c3ccc(Oc4cccc5c4C4(CC4)CO5)nc3)c2n1 [Example 18, 2-methyl-6-(6-spiro[2H-benzofuran-3,1′-cyclopropane]-4-yloxy-3-pyridyl)-4H-imidazo[4,5-c]pyrazol-5-one]	148%	251 nM	
Cc1ccc(Oc2ccc(-n3c(=O)[nH]c4cccnc43)cn2)c2c1OCC21CC1 [Example 1, 3-[6-(7-methylspiro[2H-benzofuran-3,1′-cyclopropane]-4-yl)oxy-3-pyridyl]-1H-imidazo[4,5-b]pyridin-2-one]	148%	200 nM	EC50 [2]: 200 nM
Cc1ccc(Oc2cnc(-n3c(=O)[nH]c4cccnc43)cn2)c2c1OCC21CC1 [Example 11, 3-[5-(7-methylspiro[2H-benzofuran-3,1′-cyclopropane]-4-yl)oxypyrazin-2-yl]-1H-imidazo[4,5-b]pyridin-2-one]	205%	316 nM	
O=c1[nH]c2cnccc2n1-c1ccc(Oc2cccc(OC(F)(F)F)c2)nc1 [RE10, reference compound]			EC50 [2]: 2510 nM
COc1cccc(Oc2ncc(-n3c(=O)[nH]c4cccnc43)cn2)c1 [Example 16, 3-[2-(3-methoxyphenoxy)pyrimidin-5-yl]-1H-imidazo[4,5-b]pyridin-2-one]	124%	3160 nM	
Cc1ccc(Oc2ccc(-n3c(=O)[nH]c4cncnc43)cn2)c2c1OCC21CC1 [Example 29, 9-[6-(7-methylspiro[2H-benzofuran-3,1′-cyclopropane]-4-yl)oxy-3-pyridyl]-7H-purin-8-one]	117%	158 nM	
Cc1ncc2[nH]c(=O)n(-c3ccc(Oc4ccc(C)c(OC(F)(F)F)c4)nc3)c2n1 [Example 27, 2-methyl-9-[6-[4-methyl-3-(trifluoromethoxy)phenoxy]-3-pyridyl]-7H-purin-8-one]	134% and 138%	1580 nM and 1260 nM	
Cc1ccc(Oc2ccc(N3CCNC3=O)cn2)c2c1OCC21CC1 [RE7, reference compound]			EC50 [3]: 39800 nM; Kv3.1 max R % (Table 1, Reference Examples): 29%
Cc1ccc(Oc2ccc(-n3c(=O)[nH]c4cn(C)nc43)cn2)c2c1OCC21CC1 [Example 19, 2-methyl-6-[6-(7-methylspiro[2Hbenzofuran-3,1′-cyclopropane]-4-yl)oxy-3-pyridyl]-4H-imidazo[4,5-c]pyrazol-5-one]	99%	316 nM	
O=c1[nH]c2cccnc2n1-c1cnc(Oc2cccc(OC(F)(F)F)c2)cn1 [Example 10, 3-[5-[3-(trifluoromethoxy)phenoxy]pyrazin-2-yl]-1H-imidazo[4,5-b]pyridin-2-one]	94%	2000 nM	
Cc1ccc(Oc2ccc(N3C(=O)CCNC3=O)cn2)c2c1OCC21CC1 [RE8, reference compound]			EC50 [3]: 25100 nM; Kv3.1 max R % (Table 1, Reference Examples): 140%
Cc1ccnc2c1[nH]c(=O)n2-c1cnc(Oc2cccc3c2C2(CC2)CO3)nc1 [Example 15, 7-methyl-3-(2-spiro[2H-benzofuran-3,1′-cyclopropane]-4-yloxypyrimidin-5-yl)-1H-imidazo[4,5-b]pyridin-2-one]	201%	1000 nM	
Cc1ccc(Oc2ccc(-n3c(=O)[nH]c4c(C)ccnc43)cn2)c2c1OCC21CC1 [Example 2, 7-methyl-3-[6-(7-methylspiro[2H-benzofuran-3,1′-cyclopropane]-4-yl)oxy-3-pyridyl]-1H-imidazo[4,5-b]pyridin-2-one]	83%	158 nM	
Cc1ccc(Oc2ccc(N3C(=O)NC4COCC43)cn2)c2c1OCC21CC1 (centres unmarked) [RE3, reference compound]			EC50 [3]: > 50100 nM; Kv3.1 max R % (Table 1, Reference Examples): 30%
CC1(C)COc2cccc(Oc3ccc(-n4c(=O)[nH]c5cccnc54)cn3)c21 [Example 12, 3-[6-[(3,3-dimethyl-2H-benzofuran-4-yl)oxy]-3-pyridyl]-1H-imidazo[4,5-b]pyridin-2-one]	164%	316 nM	
Cn1cc2[nH]c(=O)n(-c3cnc(Oc4cccc5c4C4(CC4)CO5)cn3)c2n1 [Example 21, 2-methyl-6-(5-spiro[2H-benzofuran-3,1′-cyclopropane]-4-yloxypyrazin-2-yl)-4H-imidazo[4,5-c]pyrazol-5-one]	96%	10000 nM	
O=c1[nH]c2ncccc2n1-c1ccc(Oc2cccc3c2C2(CC2)CO3)nc1 [Example 36, 1-(6-spiro[2H-benzofuran-3,1′-cyclopropane]-4-yloxy-3-pyridyl)-3H-imidazo[4,5-b]pyridin-2-one]	113%		EC50 (Kv3.1 pEC50, Table 2, Example compounds, rounded to one decimal place, some compounds with two data sets (n given in cell)): 631 nM; EC50 (Kv3.1 pEC50, Table 3, Reference Examples and corresponding Examples, rounded to one decimal place): 631 nM
Cc1ccc(Oc2ccc(N3C(=O)CC(C)(C)NC3=O)cn2)c2c1OCC21CC1 [RE5, reference compound]			EC50 [3]: 11200 nM; Kv3.1 max R % (Table 1, Reference Examples): 90%
Cc1ncc2[nH]c(=O)n(-c3ccc(Oc4ccc(C)c5c4C4(CC4)CO5)nc3)c2n1 [Example 25, 2-methyl-9-[6-(7-methylspiro[2H-benzofuran-3,1′-cyclopropane]-4-yl)oxy-3-pyridyl]-7H-purin-8-one]	190%	316 nM	
CC[C@@H]1CN(c2ccc(Oc3ccc(C)c4c3C3(CC3)CO4)nc2)C(=O)N1 [RE2, reference compound]			EC50 [3]: 20000 nM; Kv3.1 max R % (Table 1, Reference Examples): 92%
